For 14 molecules, TGI results are on record in PubChem BioAssay (NCI).

Molecules are shown by their SMILES.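 Five concentrations, 48 hours, 96-well plates. TGI: concentration producing complete growth inhibition.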 Bounds are passed on as bounds.

What all share (assay): NCI anticancer screen, dose series, 48 h
For experiment [1], the system named is T-47D breast.
Experiment [2] has as its system EKVX NSCLC.
The test system of experiment [3] is MOLT-4 leukemia.
Experiment [4] deals with MDA-MB-435.
The subject of experiment [5] is SF-539 CNS.
Experiment [6] concerns SK-MEL-2 melanoma.
The test system of experiment [7] is HCT-15 colon.
Experiment [8] concerns NCI/ADR-RES ovarian.
The subject of experiment [9] is TK-10 renal.
In experiment [10] the test system is HT29 colon.

For `CC(=O)OC/C=C/Cn1nc(Br)c(=O)[nH]c1=O`, the TGI in experiment [1], in experiment [2], in experiment [3], in experiment [4], in experiment [5] and in experiment [6] was more than 100 µM throughout. Besides, the TGI in [7], in experiment [8], in experiment [9] and in experiment [10] was more than 100 µM in each case.

On to `CCCCN1/C(=N/Nc2n[nH]c(=O)c3ccccc23)SCC1c1ccc(Cl)cc1` (stereo not drawn), for which the TGI is more than 100 µM in [1]; 41.2 µM in experiment [2]; 31.9 µM in experiment [4]; 33.1 µM in experiment [5]; 56.4 µM in experiment [6]; 28.7 µM in experiment [7]. In addition, the TGI in experiment [8] was determined as 47 µM; in [9], 92.7 µM; in [10], 96.1 µM.

Turning to `Nc1c(/C=C/c2cc3cc(C4=NCCN4)ccc3o2)[nH]c2cc(C3=NCCN3)ccc12`, the TGI in experiment [1], in experiment [2], in experiment [3], in experiment [4], in [5] and in [6] was more than 100 µM in each case. In addition, the TGI is more than 100 µM in experiment [7], more than 100 µM in experiment [8], 67 µM in [9] and more than 100 µM in experiment [10].

On to `CO[C@@H](c1ccccc1)[C@H](O)[C@@](O)(c1ccccc1)P(=O)(OC)OC`, for which the TGI in experiment [1], in experiment [2], in experiment [3], in experiment [4], in experiment [5] and in experiment [6] was more than 100 µM each time. Besides, the TGI in experiment [7], in [8], in experiment [9] and in experiment [10] was more than 100 µM throughout.

Regarding `CO/C(N)=C(\C#N)N=Cc1cccs1`, the TGI is more than 100 µM in [1]; more than 100 µM in experiment [2]; more than 100 µM in experiment [3]; 73.3 µM in experiment [4]; more than 100 µM in experiment [5]; more than 100 µM in experiment [6]. The TGI in [7], in experiment [8], in experiment [9] and in experiment [10] was more than 100 µM in each case.

On to `CCOC(=O)c1ccc(-c2cccs2)[nH]1`, for which the TGI was more than 92.1 µM in [1]; more than 100 µM in [2]; more than 100 µM in experiment [3]; more than 100 µM in [4]; more than 100 µM in experiment [5]; more than 100 µM in experiment [6]. Also, the TGI was more than 31.6 µM in [7], more than 100 µM in experiment [8], more than 100 µM in [9] and more than 100 µM in experiment [10].

Take `CN(C)c1ccc(/C=C2\CCCCCC2=O)cc1`: the TGI in [1], in experiment [2], in [3], in experiment [4], in experiment [5] and in experiment [6] was more than 100 µM throughout. In addition, the TGI in [8], in experiment [9] and in [10] was more than 100 µM throughout.

For the molecule `CCCCSC1=N/C(=C\c2ccccc2O)C(Cl)=N1`, the TGI in [1], in [2], in experiment [3], in experiment [4], in experiment [5] and in [6] was more than 100 µM in each case. The TGI in experiment [7], in [8], in [9] and in experiment [10] was more than 100 µM in each case.

As to `Cn1c(=O)c2c(n(C)c1=O)n1c(=O)c3ccccc3nc1n2C`, the TGI in experiment [1], in [2], in [3], in experiment [4], in experiment [5] and in experiment [6] was more than 100 µM in each case. The TGI in experiment [7], in experiment [8], in experiment [9] and in [10] was more than 100 µM throughout.

Regarding `Nc1nc(N)c2ncn(Cc3ccccc3)c2n1`, the TGI in [1], in experiment [2], in experiment [3], in experiment [4], in experiment [5] and in experiment [6] was more than 100 µM throughout. Also, the TGI in [7], in [8], in [9] and in [10] was more than 100 µM in each case.

In the case of `CNc1nc(OC)c2c(n1)[n+](C)cn2C`, the TGI in experiment [1], in experiment [2], in [3], in experiment [4], in experiment [5] and in experiment [6] was more than 100 µM throughout. Moreover, the TGI in experiment [7], in experiment [8], in experiment [9] and in experiment [10] was more than 100 µM throughout.

Take `Nc1nc2c(ccc3ccccc32)[nH]1`: the TGI in experiment [1], in experiment [2], in experiment [3], in experiment [4], in [5] and in experiment [6] was more than 10 µM each time. Further, the TGI in experiment [7], in experiment [8], in experiment [9] and in experiment [10] was more than 10 µM each time.

Consider `O=C1C[C@@]23CCC4(CC2=CCC[C@H]3O1)OCCO4`, for which the TGI in [1], in experiment [2], in experiment [3], in [4], in experiment [5] and in experiment [6] was more than 100 µM each time. Further, the TGI in [7], in experiment [8], in experiment [9] and in experiment [10] was more than 100 µM in each case.

As for `COc1ccc2c(C=O)c3n(c(=O)c2c1OC)CCc1cc2c(cc1-3)OCO2`, the TGI in experiment [1], in [2], in experiment [3], in experiment [4], in experiment [5] and in [6] was more than 100 µM throughout. Further, the TGI in [7], in [8], in [9] and in experiment [10] was more than 100 µM in each case.
